Data set [1] has as its target ATP-dependent translocase ABCB1 (Homo sapiens, UniProt P08183). Description: Inhibition of P-gp-mediated multidrug resistance in doxorubicin-resistant human MCF7/ADR cells assessed as fold reversal of resistance by measuring doxorubicin IC50 incubated for 48 hrs by CCK-8 assay relative to doxorubicin IC50 in absence of compound. It is filed as cell-based. The settings on record: nci-adr-res. A general note: Tetrazolium assays rely on reduction of a dye to a coloured formazan, in cell work by metabolically active cells.

The test system of the next data set is MCF7. Description: Cytotoxicity against human MCF7 cells assessed as inhibition rate at 5 uM measured after […] hrs by CCK-8 assay relative to control. Format: functional.
In another data set the test system is NCI/ADR-RES. Description: Cytotoxicity against doxorubicin-resistant human MCF-7/ADR cells assessed as inhibition rate at 5 uM measured after […] hrs by CCK-8 assay relative to control. It is filed as functional.

The source of these data is ChEMBL document CHEMBL5380848, “Novel Benzo Five-Membered Heterocycle Derivatives as P-Glycoprotein Inhibitors: Design, Synthesis, Molecular Docking, and Anti-Multidrug Resistance Activity” (J Med Chem, 2023).

Sequence of ATP-dependent translocase ABCB1 (P08183 whole entry): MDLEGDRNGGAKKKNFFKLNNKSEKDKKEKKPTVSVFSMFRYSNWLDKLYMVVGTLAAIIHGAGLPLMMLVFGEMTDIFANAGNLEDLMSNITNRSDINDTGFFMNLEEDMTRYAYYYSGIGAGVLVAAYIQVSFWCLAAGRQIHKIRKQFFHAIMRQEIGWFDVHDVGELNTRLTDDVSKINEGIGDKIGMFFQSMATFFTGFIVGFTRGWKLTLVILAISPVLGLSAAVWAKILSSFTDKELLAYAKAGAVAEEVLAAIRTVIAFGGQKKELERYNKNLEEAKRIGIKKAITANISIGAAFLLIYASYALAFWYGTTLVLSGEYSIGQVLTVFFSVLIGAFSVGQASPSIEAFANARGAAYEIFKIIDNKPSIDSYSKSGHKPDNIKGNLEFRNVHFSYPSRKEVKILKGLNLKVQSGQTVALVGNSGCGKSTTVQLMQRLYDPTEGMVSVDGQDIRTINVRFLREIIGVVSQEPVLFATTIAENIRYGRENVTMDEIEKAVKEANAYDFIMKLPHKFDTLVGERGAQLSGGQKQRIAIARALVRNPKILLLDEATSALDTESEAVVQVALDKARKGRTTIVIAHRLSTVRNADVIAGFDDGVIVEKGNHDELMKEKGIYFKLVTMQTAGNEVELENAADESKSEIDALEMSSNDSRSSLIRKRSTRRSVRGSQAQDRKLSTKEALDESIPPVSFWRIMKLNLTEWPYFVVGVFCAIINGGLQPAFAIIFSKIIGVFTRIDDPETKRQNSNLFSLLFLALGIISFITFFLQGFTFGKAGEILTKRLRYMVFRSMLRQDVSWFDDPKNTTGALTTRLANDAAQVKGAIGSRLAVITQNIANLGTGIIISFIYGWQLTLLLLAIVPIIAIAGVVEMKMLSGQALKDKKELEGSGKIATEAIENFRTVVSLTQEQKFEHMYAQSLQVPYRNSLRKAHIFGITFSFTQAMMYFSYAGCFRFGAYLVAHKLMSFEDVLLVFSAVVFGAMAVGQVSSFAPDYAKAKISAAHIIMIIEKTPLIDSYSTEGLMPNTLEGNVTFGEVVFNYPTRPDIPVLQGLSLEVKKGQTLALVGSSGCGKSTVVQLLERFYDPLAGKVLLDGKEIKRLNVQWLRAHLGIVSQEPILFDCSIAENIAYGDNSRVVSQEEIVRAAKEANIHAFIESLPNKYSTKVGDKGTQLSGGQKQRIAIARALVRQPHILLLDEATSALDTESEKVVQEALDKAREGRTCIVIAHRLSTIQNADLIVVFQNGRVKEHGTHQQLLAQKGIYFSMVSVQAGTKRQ

On to `COc1cc(Cn2c(C(=O)N3CCc4cc(OC)c(OC)cc4C3)cc3cc(-c4ccc(NC(=O)c5ccc(Cl)cc5)cc4)ccc32)cc(OC)c1`, for which the “fold change (FC)” value in data set [1] came to 41.5. Also, the results for the inhibition at 5 µM with MCF7 and in the data set with NCI/ADR-RES were 3% and 11.2%, respectively.

With `COc1cc2c(cc1OC)CN(C(=O)c1cc3cc(-c4ccc(NC(=O)c5ccc(Cl)cc5)cc4)ccc3n1Cc1ccccc1F)CC2`, the “fold change (FC)” value in data set [1] is 92.1. In addition, the inhibition at 5 µM was 5.3% in the data set on MCF7 and 14.3% in the data set on NCI/ADR-RES.

Regarding `COc1cc2c(cc1OC)CN(C(=O)c1cc3cc(-c4ccc(NC(=O)c5ccc(Cl)cc5)cc4)ccc3n1Cc1ccc([N+](=O)[O-])cc1)CC2`, the “fold change (FC)” value in data set [1] was 25.9. For the same compound, the values for the inhibition at 5 µM in the data set on MCF7 and with NCI/ADR-RES were 19.1% and 12.8%, respectively.

Turning to `COc1cc2c(cc1OC)CN(C(=O)c1cc3cc(-c4ccc(NC(=O)c5ccc(Cl)cc5)cc4)ccc3n1Cc1ccccc1Br)CC2`, in data set [1], the “fold change (FC)” value is 36.1. In addition, the inhibition at 5 µM in the data set with MCF7 amounted to 18.2%; in the data set on NCI/ADR-RES, 17.1%.

In the case of `COc1cc2c(cc1OC)CN(C(=O)c1cc3cc(-c4ccc(NC(=O)c5ccc(Cl)cc5)cc4)ccc3n1Cc1ccc(C(F)(F)F)cc1)CC2`, the “fold change (FC)” value in data set [1] is 29. In addition, the inhibition at 5 µM in the data set with MCF7 was 15.5%; with NCI/ADR-RES, 12.6%.

For the compound `COc1cc2c(cc1OC)CN(C(=O)c1cc3cc(-c4ccc(NC(=O)c5cc(OC)c(OC)c(OC)c5)cc4)ccc3[nH]1)CC2`, in data set [1], the “fold change (FC)” value is reported as 93.6. The inhibition at 5 µM was found to be 14.1% in the data set with MCF7 and 10.6% with NCI/ADR-RES.

Take `COc1cccc(Cn2c(C(=O)N3CCc4cc(OC)c(OC)cc4C3)cc3cc(-c4ccc(NC(=O)c5ccc(Cl)cc5)cc4)ccc32)c1`: the “fold change (FC)” value in data set [1] stood at 26.5. For the same compound, the inhibition at 5 µM with MCF7 and in the data set on NCI/ADR-RES was 5% each time.

Take `COc1ccc(Cn2c(C(=O)N3CCc4cc(OC)c(OC)cc4C3)cc3cc(-c4ccc(NC(=O)c5ccc(Cl)cc5)cc4)ccc32)cc1`: in data set [1], the “fold change (FC)” value is 105.6. Also, the figures for the inhibition at 5 µM in the data set on MCF7 and in the data set on NCI/ADR-RES were 3.2% and 18.1%, respectively.

`COc1cc2c(cc1OC)CN(C(=O)c1cc3cc(-c4ccc(NC(=O)c5ccc(Cl)cc5)cc4)ccc3n1Cc1cccc(F)c1)CC2`: the “fold change (FC)” value in data set [1] came out at 37.6. In addition, the inhibition at 5 µM with MCF7 was 1.7%; with NCI/ADR-RES, -2.6%.

With `COc1cccc(C(=O)Nc2ccc(-c3ccc4[nH]c(C(=O)N5CCc6cc(OC)c(OC)cc6C5)cc4c3)cc2)c1`, the “fold change (FC)” value in data set [1] was determined as 325.9. The results for the inhibition at 5 µM in the data set on MCF7 and in the data set on NCI/ADR-RES were 11.4% and 18.9%, respectively.

With `COc1cc2c(cc1OC)CN(C(=O)c1cc3cc(-c4ccc(NC(=O)c5ccc(I)cc5)cc4)ccc3[nH]1)CC2`, the “fold change (FC)” value in data set [1] stood at 83. The inhibition at 5 µM in the data set on MCF7 amounted to 15.4%; in the data set with NCI/ADR-RES, 12.9%.

Turning to `COc1cc2c(cc1OC)CN(C(=O)c1cc3cc(-c4ccc(NC(=O)c5ccc(Cl)cc5)cc4)ccc3n1Cc1ccc(F)cc1)CC2`, the “fold change (FC)” value in data set [1] was found to be 53.5. Also, the inhibition at 5 µM is 11.2% in the data set on MCF7 and 16.6% in the data set with NCI/ADR-RES.

As to `COc1cc2c(cc1OC)CN(C(=O)c1cc3cc(-c4ccc(NC(=O)c5ccc(Cl)cc5)cc4)ccc3n1Cc1ccccc1C(F)(F)F)CC2`, the “fold change (FC)” value in data set [1] is 10.4. The figures for the inhibition at 5 µM in the data set on MCF7 and with NCI/ADR-RES were 19.3% and 8.6%, respectively.

Regarding `COc1cc2c(cc1OC)CN(C(=O)c1cc3cc(-c4ccc(NC(=O)c5ccc(Cl)cc5)cc4)ccc3n1Cc1cccc(Cl)c1)CC2`, the “fold change (FC)” value in data set [1] came to 27.5. In addition, the inhibition at 5 µM in the data set with MCF7 turned out to be 1.3%; in the data set on NCI/ADR-RES, 0.1%.

Regarding `COc1cc2c(cc1OC)CN(C(=O)c1cc3cc(-c4ccc(NC(=O)c5ccc(Cl)cc5)cc4)ccc3n1Cc1ccc(C)cc1)CC2`, the “fold change (FC)” value in data set [1] is given as 36.6. Moreover, the values for the inhibition at 5 µM in the data set on MCF7 and with NCI/ADR-RES were 3.7% and 2.5%, respectively.

For `COc1cc2c(cc1OC)CN(C(=O)c1cc3cc(-c4ccc(NC(=O)c5ccc(Cl)cc5)cc4)ccc3n1Cc1ccccc1)CC2`, in data set [1], the “fold change (FC)” value was 55.4. Besides, the results for the inhibition at 5 µM with MCF7 and in the data set with NCI/ADR-RES were 10.1% and 6.9%, respectively.

Regarding `COc1cc2c(cc1OC)CN(C(=O)c1cc3cc(-c4ccc(NC(=O)c5ccc(Oc6ccccc6)cc5)cc4)ccc3[nH]1)CC2`, the “fold change (FC)” value in data set [1] is on record as 23. Besides, the inhibition at 5 µM in the data set on MCF7 came to 19%; with NCI/ADR-RES, 15.5%.

With `COc1cc2c(cc1OC)CN(C(=O)c1cc3cc(-c4ccc(NC(=O)c5ccccc5OC)cc4)ccc3[nH]1)CC2`, in data set [1], the “fold change (FC)” value turned out to be 16.1. Moreover, the inhibition at 5 µM in the data set on MCF7 was 20.7%; with NCI/ADR-RES, -2.9%.

As to `COc1cc2c(cc1OC)CN(C(=O)c1cc3cc(-c4ccc(NC(=O)c5ccc(Cl)cc5)cc4)ccc3n1Cc1ccc(OC(F)(F)F)cc1)CC2`, the “fold change (FC)” value in data set [1] came to 29.2. For the same compound, the inhibition at 5 µM is 0.3% with MCF7 and 2.8% in the data set on NCI/ADR-RES.

On to `COc1cc2c(cc1OC)CN(C(=O)c1cc3cc(-c4ccc(NC(=O)c5ccc(F)cc5)cc4)ccc3[nH]1)CC2`, for which the “fold change (FC)” value in data set [1] is 3628.7. Also, the values for the inhibition at 5 µM with MCF7 and in the data set on NCI/ADR-RES were 52.8% and 50.4%, respectively.

Regarding `CCOc1ccc(C(=O)Nc2ccc(-c3ccc4[nH]c(C(=O)N5CCc6cc(OC)c(OC)cc6C5)cc4c3)cc2)cc1`, the “fold change (FC)” value in data set [1] came out at 333. The inhibition at 5 µM in the data set on MCF7 worked out at 15.4%; in the data set with NCI/ADR-RES, 7.7%.

As for `COc1cc2c(cc1OC)CN(C(=O)c1cc3cc(-c4ccc(NC(=O)c5ccc(Cl)cc5)cc4)ccc3n1Cc1cccc(C(F)(F)F)c1)CC2`, the “fold change (FC)” value in data set [1] is listed as 39.9. In addition, the inhibition at 5 µM is 8.5% in the data set with MCF7 and 6.3% in the data set on NCI/ADR-RES.

With `COc1cc2c(cc1OC)CN(C(=O)c1cc3cc(-c4ccc(NC(=O)c5cccc(F)c5)cc4)ccc3[nH]1)CC2`, the “fold change (FC)” value in data set [1] is reported as 1021.3. The inhibition at 5 µM stood at 31.5% with MCF7 and 34.1% in the data set on NCI/ADR-RES.

`COc1cc2c(cc1OC)CN(C(=O)c1cc3cc(-c4ccc(NC(=O)c5ccc(Cl)cc5)cc4)ccc3n1Cc1ccc(Br)cc1)CC2`: the “fold change (FC)” value in data set [1] is reported as 31.1. Also, the results for the inhibition at 5 µM in the data set with MCF7 and in the data set with NCI/ADR-RES were 3.5% and -13.8%, respectively.

With `COc1cc2c(cc1OC)CN(C(=O)c1cc3cc(-c4ccc(NC(=O)c5ccccc5Cl)cc4)ccc3[nH]1)CC2`, in data set [1], the “fold change (FC)” value came out at 241.9. Also, the inhibition at 5 µM with MCF7 stood at 12.7%; in the data set on NCI/ADR-RES it was 12.4%.

For `COc1cc2c(cc1OC)CN(C(=O)c1cc3cc(-c4ccc(NC(=O)c5ccc(C#N)cc5)cc4)ccc3[nH]1)CC2`, the “fold change (FC)” value in data set [1] was determined as 39.1. Besides, the inhibition at 5 µM in the data set on MCF7 stood at 10.7%; in the data set on NCI/ADR-RES, 19.5%.

`COc1cc2c(cc1OC)CN(C(=O)c1cc3cc(-c4ccc(NC(=O)c5ccc(C(F)(F)F)cc5)cc4)ccc3[nH]1)CC2`: the “fold change (FC)” value in data set [1] is 1717. For the same compound, the inhibition at 5 µM is 11.8% with MCF7 and 22% with NCI/ADR-RES.

Consider `COc1cc2c(cc1OC)CN(CCc1ccc(NC(=O)c3cc(OC)c(OC)cc3NC(=O)c3cnc4ccccc4c3)cc1)CC2`, for which the “fold change (FC)” value in data set [1] amounted to 283.2. Further, the figures for the inhibition at 5 µM in the data set on MCF7 and with NCI/ADR-RES were 42.8% and 48.9%, respectively.

For the compound `COc1cc2c(cc1OC)CN(C(=O)c1cc3cc(-c4ccc(NC(=O)c5ccc(Cl)cc5)cc4)ccc3n1Cc1ccccc1Cl)CC2`, the “fold change (FC)” value in data set [1] turned out to be 30.3. Besides, the figures for the inhibition at 5 µM with MCF7 and with NCI/ADR-RES were 13.4% and 18.6%, respectively.

One may read the inhibition as the relative decrease from the control value, in per cent.
